The values below are quoted from earlier work in US20210077665A1, “METHODS AND DEVICES FOR LYMPHATIC TARGETING” (priority 2005, published 2021).

Broadly, the IC50 is the concentration that inhibits the measured activity by half.

For data set [1] the following is noted: at 44 h; pleural injection.

On to `CC(=O)O[C@H]1C(=O)[C@@]2(C)[C@H]([C@H](OC(=O)c3ccccc3)[C@]3(O)C[C@H](OC(=O)[C@H](O)[C@@H](NC(=O)c4ccccc4)c4ccccc4)C(C)=C1C3(C)C)[C@]1(OC(C)=O)CO[C@@H]1C[C@@H]2O` [Paclitaxel, paclitaxel], for which the IC50 in the data set with H460 lung cancer cells was 5 nM.

On to “111In-avidin: 111In labeled avidin injected in the pleural space (literature)”, for which the “uptake in mediastinal nodes” value in data set [1] is 3.3%.
